Values joined by “and” are separate entries in the source; they are usually repeats but may differ in a detail not shown here. Equal values may be shown once.
Assay: xn = mol fraction of the nth substance listed
Conditions: for electrical conductivity: 101.3 kPa

C[N+](C)(C)CCO.O=S(=O)([N-]S(=O)(=O)C(F)(F)F)C(F)(F)F + OCCOCCOCCOCCO
Conditions	viscosity [mPa·s]
298.15 K, 101 kPa, x2 = 0	144.8

CCCCCCCCCCCCCCCC[N+](C)(C)C.[Br-] + OC[C@@H](O)[C@@H](O)[C@H](O)[C@@H](O)CO + O
viscosity [mPa·s], 100 kPa
Conditions	298.15 K	308.15 K	318.15 K
x2 = 0, x1 = 7.21e-06	0.896	0.742	0.617
x2 = 0, x1 = 1.442e-05	0.898	0.744	0.617
x2 = 0, x1 = 2.162e-05	0.9	0.745	0.617

CCCCCCCCCCCCCCCC[N+](C)(C)C.[Br-] + OC[C@@H](O)[C@H](O)[C@@H](O)CO + O
viscosity [mPa·s], 100 kPa
Conditions	298.15 K	308.15 K	318.15 K
x1 = 7.19e-06, x2 = 0.002032	0.942	0.778	0.646
x1 = 7.19e-06, x2 = 0.002472	0.952	0.785	0.652
x1 = 7.19e-06, x2 = 0.002816	0.96	0.791	0.657
x1 = 7.2e-06, x2 = 0.0009831	0.918	0.759	0.631
x1 = 7.2e-06, x2 = 0.001215	0.923	0.763	0.634
x1 = 7.2e-06, x2 = 0.00156	0.931	0.769	0.639
x1 = 7.21e-06, x2 = 0	0.896	0.742	0.617
x1 = 1.437e-05, x2 = 0.002971	0.97	0.801	0.664
x1 = 1.438e-05, x2 = 0.002331	0.955	0.789	0.654
x1 = 1.439e-05, x2 = 0.001497	0.935	0.772	0.641
x1 = 1.439e-05, x2 = 0.002025	0.947	0.783	0.649
x1 = 1.44e-05, x2 = 0.0008555	0.919	0.76	0.631
x1 = 1.44e-05, x2 = 0.001291	0.929	0.768	0.638
x1 = 1.442e-05, x2 = 0	0.898	0.744	0.617
x1 = 2.156e-05, x2 = 0.002894	0.973	0.804	0.666
x1 = 2.157e-05, x2 = 0.002365	0.96	0.793	0.657
x1 = 2.158e-05, x2 = 0.002035	0.951	0.786	0.651
x1 = 2.159e-05, x2 = 0.001618	0.941	0.778	0.644
x1 = 2.16e-05, x2 = 0.0009365	0.924	0.764	0.633
x1 = 2.16e-05, x2 = 0.001242	0.931	0.77	0.638
x1 = 2.162e-05, x2 = 0	0.9	0.745	0.617

CCCCCCCCn1cc[n+](C)c1.[Cl-] + OC[C@H]1O[C@@](CO)(O[C@H]2O[C@H](CO)[C@@H](O)[C@H](O)[C@H]2O)[C@@H](O)[C@@H]1O + O
298.15 K
Conditions	electrical conductivity
x2 = 0, x1 = 4.96e-06	0.00314 S/m
x2 = 0, x1 = 7.53e-06	0.00467 S/m
x2 = 0, x1 = 1.002e-05	0.00613 S/m
x2 = 0, x1 = 1.247e-05	0.00756 S/m
x2 = 0, x1 = 1.481e-05	0.00893 S/m
x2 = 0, x1 = 1.716e-05	0.01029 S/m
x2 = 0, x1 = 1.95e-05	0.0116 S/m
x2 = 0, x1 = 2.177e-05	0.0129 S/m
x2 = 0, x1 = 2.424e-05	0.01436 S/m
x2 = 0, x1 = 2.667e-05	0.0158 S/m
x2 = 0, x1 = 2.939e-05	0.0173 S/m
x2 = 0.003591, x1 = 1.259e-05	0.00669 S/m
x2 = 0.003591, x1 = 1.587e-05	0.00832 S/m
x2 = 0.003591, x1 = 1.902e-05	0.00988 S/m
x2 = 0.003591, x1 = 2.222e-05	0.0114 S/m
x2 = 0.003591, x1 = 2.521e-05	0.0129 S/m
x2 = 0.003591, x1 = 2.835e-05	0.0144 S/m
x2 = 0.003591, x1 = 3.142e-05	0.0159 S/m
x2 = 0.003591, x1 = 3.424e-05	0.01727 S/m
x2 = 0.003591, x1 = 3.712e-05	0.0186 S/m
x2 = 0.007156, x1 = 1.254e-05	0.00531 S/m
x2 = 0.007156, x1 = 1.623e-05	0.00676 S/m
x2 = 0.007156, x1 = 1.993e-05	0.00821 S/m
x2 = 0.007156, x1 = 2.37e-05	0.00967 S/m
x2 = 0.007156, x1 = 2.738e-05	0.0111 S/m
x2 = 0.007156, x1 = 3.084e-05	0.01242 S/m
x2 = 0.007156, x1 = 3.403e-05	0.0137 S/m
x2 = 0.007156, x1 = 3.72e-05	0.0149 S/m
x2 = 0.007156, x1 = 4.042e-05	0.01608 S/m
x2 = 0.007156, x1 = 4.288e-05	0.01701 S/m
x2 = 0.0107, x1 = 8.12e-06	0.00311 S/m
x2 = 0.0107, x1 = 1.295e-05	0.00472 S/m
x2 = 0.0107, x1 = 1.756e-05	0.00623 S/m
x2 = 0.0107, x1 = 2.181e-05	0.00762 S/m
x2 = 0.0107, x1 = 2.602e-05	0.00898 S/m
x2 = 0.0107, x1 = 3.017e-05	0.0103 S/m
x2 = 0.0107, x1 = 3.408e-05	0.0115 S/m
x2 = 0.0107, x1 = 3.778e-05	0.0127 S/m
x2 = 0.0107, x1 = 4.136e-05	0.0138 S/m
x2 = 0.0107, x1 = 4.484e-05	0.0149 S/m
x2 = 0.0107, x1 = 4.818e-05	0.016 S/m
x2 = 0.01421, x1 = 9.43e-06	0.00302 S/m
x2 = 0.01421, x1 = 1.407e-05	0.00432 S/m
x2 = 0.01421, x1 = 1.861e-05	0.00559 S/m
x2 = 0.01421, x1 = 2.29e-05	0.00678 S/m
x2 = 0.01421, x1 = 2.718e-05	0.00795 S/m
x2 = 0.01421, x1 = 3.134e-05	0.00908 S/m
x2 = 0.01421, x1 = 3.512e-05	0.0101 S/m
x2 = 0.01421, x1 = 3.883e-05	0.0111 S/m
x2 = 0.01421, x1 = 4.258e-05	0.0121 S/m
x2 = 0.01421, x1 = 4.643e-05	0.01312 S/m
x2 = 0.0177, x1 = 7.66e-06	0.00219 S/m
x2 = 0.0177, x1 = 1.502e-05	0.00393 S/m
x2 = 0.0177, x1 = 2.194e-05	0.00554 S/m
x2 = 0.0177, x1 = 2.846e-05	0.00705 S/m
x2 = 0.0177, x1 = 3.471e-05	0.00848 S/m
x2 = 0.0177, x1 = 4.134e-05	0.00996 S/m
x2 = 0.0177, x1 = 4.728e-05	0.01128 S/m
x2 = 0.0177, x1 = 5.36e-05	0.0127 S/m
x2 = 0.0177, x1 = 5.928e-05	0.0139 S/m
x2 = 0.0177, x1 = 6.496e-05	0.01517 S/m
x2 = 0.02116, x3 = 0.9788	0.0133 S/m and 0.0143 S/m

CCCCCCCCCCCCCCCC[N+](C)(C)C.[Br-] + OC[C@H]1O[C@H](O[C@H]2[C@H](O)[C@@H](O)C(O)O[C@@H]2CO)[C@H](O)[C@@H](O)[C@@H]1O + O
viscosity [mPa·s], 100 kPa
Conditions	298.15 K	308.15 K	318.15 K
x1 = 7.21e-06, x2 = 0	0.896	0.742	0.617
x1 = 1.442e-05, x2 = 0	0.898	0.744	0.617
x1 = 2.162e-05, x2 = 0	0.9	0.745	0.617

CCCCCCCCn1cc[n+](C)c1.N#C[S-] + [Br-].[Li+] + CN1CCCC1=O
298.15 K, 101 kPa
Conditions	viscosity [mPa·s]
x1 = 0.001194, x2 = 0.02592	2.51
x1 = 0.001279, x2 = 0.05082	3.301
x1 = 0.001363, x2 = 0.07495	4.627
x1 = 0.002361, x2 = 0.07487	4.663
x1 = 0.002564, x2 = 0.05075	3.33
x1 = 0.002749, x2 = 0.02588	2.538
x1 = 0.003543, x2 = 0.07478	4.688
x1 = 0.003719, x2 = 0.05069	3.358
x1 = 0.003898, x2 = 0.02585	2.568
x1 = 0.004852, x2 = 0.05063	3.389
x1 = 0.005129, x2 = 0.07466	4.714
x1 = 0.00561, x2 = 0.02581	2.544
x1 = 0.005681, x2 = 0.05059	3.416
x1 = 0.006324, x2 = 0.07457	4.741
x1 = 0.006743, x2 = 0.02578	2.6
x1 = 0.007583, x2 = 0.07448	4.77
x1 = 0.007954, x2 = 0.05048	3.441
x1 = 0.008125, x2 = 0.02574	2.622
x1 = 0.008906, x2 = 0.07438	4.799
x1 = 0.009097, x2 = 0.05042	3.471
x1 = 0.009222, x2 = 0.02572	2.651
x1 = 0.009986, x2 = 0.05037	3.503
x1 = 0.01013, x2 = 0.02569	2.674
x1 = 0.01054, x2 = 0.07426	4.824

Reference: the CheMixHub ionic liquid set
